Data taken from US12433876B2, “Septin inhibitors for treatment of cancers” (UNIVERSITY OF ROCHESTER, priority 2019, dated 2025).

Legend:
EGFR = assay: Western blot of EGFR expression; type: cell-based; conditions: UR214-7 33 μM, UR214-9 33 μM; 24 hours
Description: Cell lines, Culture, and Reagents. Cells were maintained in either DMEM (SKOV-3, KLE, OVCAR-3, OVCAR8-C5 and IGROV-1) or RPMI-1640 (ECC-1 and HCH-1), supplemented with 10% fetal calf serum (or 20% for OVCAR-3), penicillin (100 units/mL), and streptomycin (100 μg/mL) at 37° C. with 5% CO2 in a humidified incubator. Antibodies were purchased from Abcam (septin-2; ab179436) and Cell Signaling Technology; ERK (9102), p-ERK (4370), -actin (3700), u-Tubulin (2144), EGFR (4267) and HER2 (4290). FCF was purchased from Abcam. All other chemicals were from Sigma Aldrich. Synthesis of Derivaties. […] The reaction was monitored using thin-layer chromatography plates with DCM-MeOH or pure ethyl acetate as eluent. Spots were monitored in a UV chamber. […] Quantitative Real-Time PCR. […] Quantitative real-time PCR was conducted using QuantStudio 12 K Flex Real-Time PCR System (ABI) and the Taqman Gene Expression Assay (ABI) consisting of the FAM-labeled probes as follows: SEPT2 (Hs01565417_ml); WFDC2 (Hs00899484_ml); TBP (Hs00427620_ml) or B2M (Hs00187842_ml), which was used as reference for normalization. […] Cell viability, proliferation, and cellular apoptosis were measured using the MTS (Promega), BrdU cell proliferation (Cell Signaling Technology), and Caspase-Glo 3/7 apoptosis detection (Promega) assays, following the respective manufacturer's recommendations with suitable modification. […]

PANC-1 cell line = assay: RNA-Seq whole transcriptome analysis, PANC-1; type: cell-based, human; conditions: 10 nM Afatinib, 1 μM UR214-9

## O=C(Nc1cc(Cl)nc(Cl)c1)Nc1cccc(SC(F)(F)F)c1F [UR214-9]
EGFR
  EGFR expression: did not have an effect
PANC-1 cell line
  significantly differentially expressed genes versus control: no differentially expressed genes
